{
  "source": "patent US6897348B2",
  "about": "“Bandage, methods of producing and using same” (Kimberly Clark Worldwide, Inc, priority 2001, dated 2005)",
  "key": {"[1]": {"system": "full thickness (excisional) wounds on dorsal skin", "assay": "Accelerated wound healing study, full thickness acute wound model (re-epithelialization, epithelial thickness)", "format": "in vivo", "conditions": "rat full thickness wound", "description": "Following the assessment of hemostatic agents, a study was conducted using the accelerated wound healing study protocol which follows. In the examples of the study, a series of comparative control bandage substrates were evaluated as to the speed at which wounds covered/dressed with such bandages healed. In particular, the rates of re-epithelialization were measured for wounds dressed by such control dressing materials. Additionally, the rates at which wounds heal that have been treated with a series of test compounds in accordance with the present invention, were also measured and compared with the controls.\nFor the purposes of the examples, the test compounds consisted of chitosan, Niacinamide ascorbate (hereinafter NA) prepared by the method which follows; and chitosan niacinamide ascorbate salt (hereinafter CNA, prepared by the method which follows), 2-ply surgical gauze, and Comfeel® Plus Clear Dressing (Colorplast).\nWounds were treated with test and control articles on the day of wounding (day 0) on 2, 4, 6, 8, 10, 12, and 14 days after the injury. CNA (freeze dried) was cut to the approximate size of the wound and applied over the wound. Chitosan (powder) and NA (powder) were applied over the wound to the depth that covered the underlying tissue. The gauze was cut to extend approximately 0.5 cm beyond the margins of the wound. The Comfeel® Plus dressing was cut to the approximate size of the wound and applied over the wound and also used to cover all test and control articles over the entire dorsal surface of the animal. […]\nFor the study, twenty four albino rats (12M/12F), each weighing between 250-300 g, were anesthetized (90 mg/Kg Ketamine HCL and 10 mg/Kg Xylazine) and the entire dorsal region of each rat was shaved. […] The epithelial thickness of the three sections of the wound (margin, center and midpoint between these two) was measured by morphometric analysis of the microscopic image using Image-Pro Plus software, Version 3.0 (Media Cybernetics). The average thickness of these sites within the wound was determined for wound healing of the entire site."}, "[2]": {"system": "human blood", "assay": "Lee and White Coagulation Assay in Human Blood", "conditions": "samples in dried form (5 mg/ml), triplicate", "description": "For the purposes of this application, and as a preliminary matter, a series of hemostatic agents were evaluated in order to determine a relative comparison of the effectiveness of such compounds on human blood. Each of the compounds were evaluated in the comparison against the standard control (human blood) and the negative control heparin, which is an anti-coagulant. […] Lee and White Coagulation Assay in Human Blood [table]"}},
  "data": [
    {"molecule": "NC(=O)c1cccnc1.O=C1O[C@H]([C@@H](O)CO)C(O)=C1O", "note": "[NA, Niacinamide ascorbate]", "values": [
      {"measurement": "improvement in re-epithelialization over the gauze control", "setting": "[1]; day 5", "value": "> 50", "unit": "%"},
      {"measurement": "re-epithelialization compared with the Comfeel control", "setting": "[1]; over 15 days", "value": "larger growth rates (re-epithelialization rates)"},
      {"measurement": "re-epithelialization compared with the gauze control", "setting": "[1]; over 15 days", "value": "larger numbers for re-epithelialization than the control"}
    ]},
    {"molecule": "Heparin", "values": [
      {"measurement": "BLOOD CLOTTING TIME (MIN)", "setting": "[2]", "value": "NC (NC = No Clot for 60 min)"}
    ]}
  ]
}
